According to patent US11104618B2, “Fertilizer composition and methods of making and using same” (SABIC GLOBAL TECHNOLOGIES B.V., priority 2015, dated 2021):

Columns and labels:
[1] = Thermal stability of NBTPT at urea melt temperature by HPLC; format: physicochemical
Procedure: The thermal stability of neat NBTPT and NBTPT contained within a core, as disclosed herein, can be determined by HPLC. For example, neat NBTPT or a core containing NBTPT can be exposed to 135° C. (133-135° C. is the typical temperature range of a urea melt) and can continuously be analyzed by HPLC every 5 min, until 30 min on analysis was reached. Such data will determine whether the NBTPT has better thermal stability when contained within a core, as compared to neat NBTPT.
Stability of inhibitors in urea melt: Extrudates containing inhibitors were tested for their stability in urea melt using HPLC and LCMS.

[2] = test system: Upland Crowley Soil; test: Nitrogen loss after 17 days of exposure to soil (IFDC)
Procedure: The nitrogen volatilization was measured in different soils for several samples and compared to products on the market, such as Agrotain®, ESN®, and SuperU®. The samples were tested in Greenville soil, Crowley soil, and Brownfield Soil. Crowley soil consists of very deep, somewhat poorly drained, very slowly permeable soils that formed in clayey fluviomarine deposits of the Pleistocene age. The soil exist in nearly level to very gently sloping soils and occur on flat coastal plains terraces. The slope is dominantly less than 1 percent but ranges to up to 3 percent. The mean annual precipitation is about 1549 mm (61 in), and the mean annual air temperature is about 20 degrees C. (68 degrees F.), where the soil is found. The soil is fine, […], and […].

Compound	thermal stability of neat NBTPT ([1]; neat, exposed to 133-135° C. over time, FIG. 13)	thermal stability of NBTPT within a fertilizer core particle ([1]; within a core exposed to 133-135° C. over time, FIG. 14)	Cumulative Nitrogen Loss (mg) by 17 Days ([2]; 17 days of exposure to Upland Crowley Soil)	% Urea ([2]; nitrogen loss relative to urea, 17 days, Upland Crowley Soil)	% Reduction in Nitrogen Loss ([2]; versus urea, 17 days, Upland Crowley Soil)
CCCCNP(N)(N)=S [NBTPT, N-(n-butyl) thiophosphoric triamide]	decomposes at this temperature over time	stable over time and does not decompose			
NC(N)=O [Urea, urea]			299.08 mg	100%	0%
